Laboratory results taken from patent publication US10167315B2, “Peptoids and methods for treating Alzheimer's disease” (THE BOARD OF TRUSTEES OF THE UNIVERSITY OF ARKANSAS, priority 2015, dated 2019).
Where a SMILES comes first, the peptide text is derived from it. [ ]: non-standard residue; d: D form. N(1S-Me-propyl)Gly = CC[C@H](C)NCC(=O)O; Nspe = C[C@H](NCC(=O)O)c1ccccc1; Nphe = O=C(O)CNCc1ccccc1; NPrGly = CCCNCC(=O)O; Nlys = NCCCCNCC(=O)O

Columns and labels:
Aβ40 [1] = target: T1, Aβ40 (Homo sapiens, UniProt P05067); experiment: Nile Red spectroscopy, surface hydrophobicity of Aβ40 aggregates; settings: 100 μM peptoid, 20 μM Aβ40, equilibrium plateau; n=3-4
T1 construct: purchased Anaspec, Inc
Protocol: (§1) Aggregation assays were performed with 20 μM rehydrated Aβ40 in 40 mM Tris-HCl (pH 8.0) and 150 mM NaCl. Peptoids were dissolved in DMSO and added at 100 μM such that the final DMSO concentration was 5% (v/v). Assays were performed at 25° C. with agitation on an orbital shaker at 800 rpm.
To monitor peptoid-induced changes in aggregate surface hydrophobicity, which are indicative of changes in aggregate conformation, an aliquot of the aggregation reaction was taken from the equilibrium plateau and combined with 200 μM Nile Red (Life Technologies, Carlsbad, Calif.) at a 10:1 molar ratio (Nile Red:Aβ). Samples were scanned using a PerkinElmer LS 45 Luminescence Spectrometer (excitation at 550 nm and emission from 580-700 nm), and the integrated area under the curve (IAUC) was calculated from 580-700 nm. The IAUC was blank (Nile Red, peptoid) subtracted and normalized to Nile Red measurements performed for the control reaction.

Aβ40 [2] = target: T1, Aβ40; experiment: Aβ40 aggregation assay monitored via ThT fluorescence; assay type: biochemical; settings: 100 μM peptoid, 20 μM Aβ40 monomer; mean±SEM, n=7
Protocol: (§2) Aβ40 was dissolved in cold 1,1,1,3,3-hexafluoro-2-propanol (HFIP) to create a 1 mM solution and was incubated on ice for 60 min. After incubation, the solution was aliquoted into individual silicon-coated vials, and HFIP was allowed to evaporate overnight at room temperature, resulting in a thin protein film that was stored with desiccant at −80° C. until use. Prior to experimentation, protein films were rehydrated with 5 mM NaOH on ice for 5 min, and then 40 mM Tris-HCl (pH 8.0) was added for 10 min on ice for a final concentration of 250 μM NaOH.
as §1
To monitor aggregation using ThT, an aliquot of the aggregation reaction was taken at varying time points and combined with 12.5 μM ThT at a 5:1 molar ratio (ThT:Aβ). Samples were mixed for 8 s and then scanned with a Shimazdu RF-150 mini fluorometer (excitation at 440±10 nm and emission at 490±10 nm) using an average scan time of 4 s. ThT fluorescence with background (ThT alone) subtraction was normalized to the fluorescence detected at equilibrium within the control reaction, and results were plotted against time. […] The fold-change in the lag time was calculated as the ratio of the lag time observed in the presence of peptoid to that of the control. The equilibrium plateau was determined for both the control and peptoid reactions, and percent inhibition was calculated as the percentage decrease of the equilibrium plateau observed in the presence of peptoid relative to the control.

Aβ40 [3] = target: T1, Aβ40; experiment: Aβ40 aggregation assay assessed by dot blot analysis with fibril specific OC antibody; assay type: biochemical; settings: 100 μM peptoid, 20 μM Aβ40 monomer; for lag time extension (dot blot, OC antibody), FIG. 3 legend: mean±SEM, n=3
Protocol: as §2, §1
In parallel with ThT fluorescence, aggregation assays were also assessed by dot blot analysis. […] Membranes were washed three times with TBS-T and incubated with Aβ fibril specific OC antibody (1:5000 dilution) for 1 h at room temperature with gentle agitation. Membranes were again washed three times with TBS-T. Protein detection for bound OC antibody was performed by binding alkaline phosphatase-conjugated anti-rabbit IgG (1:3000 dilution) for 1 h at room temperature with gentle agitation. Dot blots were developed using nitro blue tetrazolium and 5-bromo-4-chloro-3-indolyl phosphate in TBS-T/MgCl2 until […]. The developing reaction was halted using a 10% acetic acid solution. Dot blots were immediately imaged using a Canon CanoScan 9000F (Tokyo, Japan). Images were analyzed with ImageJ software using the gel lane analysis tool. Dot density was normalized to the density detected at equilibrium for the control and plotted against time. The fold-change in lag time and percent inhibition were assessed as described for ThT fluorescence.

Aβ40 [4] = target: T1, Aβ40; experiment: Transmission electron microscopy of Aβ40 aggregates; settings: 100 μM peptoid, 20 μM Aβ40, 255 min; for overall number of Aβ40 aggregates (TEM): versus control
Protocol: Aggregation assays were performed with 20 μM rehydrated Aβ40 in 40 mM Tris-HCl (pH 8.0) and 150 mM NaCl. Peptoids were dissolved in DMSO and added at 100 μM such that the final DMSO concentration was 5% (v/v). Assays were performed at 25° C. with agitation on an orbital shaker at 800 rpm. Monomer aggregation reactions were gridded for transmission electron microscopy (TEM) at 255 min, a time by which the control reaction had reached plateau as observed by ThT fluorescence. A 3 μL sample was placed onto a wax substrate, and a 300 square mesh formvar-carbon supported nickel grid (Electron Microscopy Sciences, Hatfield, Pa.) was inverted onto the sample. After 1 min, the sample was wicked away from the bottom side of the grid using a piece of filter paper. A 3 μL sample of 2% uranyl acetate was then placed onto the wax substrate, and the grid was inverted onto the solution for a period of 45 s. Excess stain was wicked away with a piece of filter paper, and the grids were allowed to dry for a period of 24 h. Imaging was performed using a JEOL-1011 transmission electron microscope (JEOL Ltd., Tokyo, Japan) with an accelerating voltage of 110 kV. Blinded observation of samples with random selection of grid areas was implemented to reduce bias during imaging. Images are the representative of 3 repeated experiments and 3 random sections of the grids.

Aβ40 [5] = target: T1, Aβ40; settings: cited from earlier work
Aβ40 [6] = target: T1, Aβ40; settings: different Aβ lot; cited from earlier work

T1 sequence (P05067 672-711 limits assumed): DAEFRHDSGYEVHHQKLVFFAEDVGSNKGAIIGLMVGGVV

Row | Structure (SMILES) | surface hydrophobicity of Aβ40 aggregates (Nile Red fluorescence IAUC 580-700 nm normalized to control) (Aβ40 [1]) | Inhibition of Aβ40 aggregation (reduction in the ThT fluorescence plateau at equilibrium) (Aβ40 [2]) [%] | decrease in fibrillar aggregates at equilibrium (dot blot, OC antibody) (Aβ40 [3]) [%] | fold change in lag time versus the control (dot blot, OC antibody) (Aβ40 [3]) [fold] | lag time extension (dot blot, OC antibody), FIG. 3 legend (Aβ40 [3]) | overall number of Aβ40 aggregates (TEM) (Aβ40 [4]) | Inhibition of Aβ40 aggregation (ThT), previously reported value (Aβ40 [5]) [%] | morphology of Aβ40 aggregates formed in the presence of peptoid (TEM) (Aβ40 [4]) | decrease in fibrillar aggregates (dot blot), previously published data (Aβ40 [6]) [%] | fold change in lag time compared to the control (dot blot), previously published data (Aβ40 [6]) [fold]
1 | CC[C@H](C)NCC(=O)N(CC(=O)N(CC(=O)N(CC(=O)N(CC(=O)N(CCCCN)CC(=O)N(CC(=O)N(CC(N)=O)[C@@H](C)c1ccccc1)[C@@H](C)CC)[C@@H](C)CC)[C@@H](C)c1ccccc1)[C@@H](C)c1ccccc1)[C@@H](C)c1ccccc1 [JPT1s] (H-[N(1S-Me-propyl)Gly][Nspe][Nspe][Nspe][N(1S-Me-propyl)Gly][Nlys][N(1S-Me-propyl)Gly][Nspe]-NH2) | no significant change in Nile Red fluorescence | 76.9±4.8 | 50.5±9.0 | 2.2±0.4 | 2.22±0.28 times that of the control | reduction in the overall number of aggregates |  |  |  | 
2 | CC[C@H](C)N(CC(=O)N(CC(=O)N(CC(=O)N(CC(=O)N(CC(=O)N(CC(=O)N(CC(N)=O)[C@@H](C)c1ccccc1)[C@@H](C)c1ccccc1)[C@@H](C)CC)[C@@H](C)c1ccccc1)[C@@H](C)c1ccccc1)[C@@H](C)CC)C(=O)CNCCCCN [JPT1] (H-[Nlys][N(1S-Me-propyl)Gly][N(1S-Me-propyl)Gly][Nspe][Nspe][N(1S-Me-propyl)Gly][Nspe][Nspe]-NH2) | no significant change in Nile Red fluorescence | 83.1±4.8 | 46.0±11.4 | 2.7±0.8 | 2.67±0.83 times that of the control | reduction in the overall number of aggregates | 81.2±4.4 | small aggregates with no extensive branching | 63.7±9.2 | < 0.31
3 | CCCN(CC(=O)N(CCC)CC(=O)N(CC(=O)N(CC(=O)N(CCC)CC(=O)N(CC(=O)N(CC(N)=O)Cc1ccccc1)Cc1ccccc1)Cc1ccccc1)Cc1ccccc1)C(=O)CNCCCCN [JPT1a] (H-[Nlys][NPrGly][NPrGly][Nphe][Nphe][NPrGly][Nphe][Nphe]-NH2) | significantly increased surface hydrophobicity | 85.6±4.8 | 72.6±4.5 | < 0.50 | < 0.42 times that of the control | reduction in the overall number of aggregates |  | circular, bird nest-like morphology |  | 
